From PubChem BioAssay AID330 (DTP/NCI, 2004)
Where “and” joins values, the source holds several entries; their conditions need not be identical. Equal entries are not always repeated. Inconclusive results and toxic doses are left out. The calls were made as follows: active = survival T/C of 150% or more; inactive = T/C below 125% in these data.

Tested on: P388 leukemia ip, CD2F1 mice, survival T/C
Assay: NCI In Vivo Anticancer Drug Screen. Data for tumor model P388 Leukemia (intraperitoneal) in CD2F1 (CDF1) mice
Conditions: endpoint: median survival time, higher = longer survival
Outline: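 Mice carrying the transplanted tumor received test compound or vehicle. Survival was recorded in each group, and the value is the treated-group measurement divided by that of the vehicle-treated control group.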

[1] = dose: 12.5 mg/kg/injection, schedule: Q01DX005 (ip), vehicle: Klucel (hydroxypropylcellulose) (HPC)
[2] = dose: 12.5 mg/kg/injection, schedule: Q01DX009 (ip), vehicle: saline with Tween-80
[3] = dose: 25.0 mg/kg/injection, schedule: Q01DX009 (ip), vehicle: saline with Tween-80
[4] = dose: 50.0 mg/kg/injection, schedule: Q01DX009 (ip), vehicle: saline with Tween-80
[5] = dose: 50.0 mg/kg/injection, schedule: Q01DX005 (ip), vehicle: Klucel (hydroxypropylcellulose) (HPC)
[6] = dose: 100.0 mg/kg/injection, schedule: Q01DX005 (ip), vehicle: Klucel (hydroxypropylcellulose) (HPC)
[7] = dose: 50.0 mg/kg/injection, schedule: Q01DX005 (ip), vehicle: saline
[8] = dose: 400.0 mg/kg/injection, schedule: Q01DX001 (ip), vehicle: saline with Tween-80
[9] = dose: 200.0 mg/kg/injection, schedule: Q01DX005 (ip), vehicle: Klucel (hydroxypropylcellulose) (HPC)
[10] = dose: 100.0 mg/kg/injection, schedule: Q01DX009 (ip), vehicle: saline with Tween-80
[11] = dose: 200.0 mg/kg/injection, schedule: Q01DX009 (ip), vehicle: saline with Tween-80

Measured: T/C

[Cl][Sn]([CH2][Sn]([Cl])([c]1ccccc1)[c]1ccccc1)([c]1ccccc1)[c]1ccccc1
inactive: dose: 0.39 mg/kg/injection, schedule: Q01DX005 (ip), vehicle: Klucel (hydroxypropylcellulose) (HPC) 103 % of control | dose: 0.79 mg/kg/injection, schedule: Q01DX005 (ip), vehicle: Klucel (hydroxypropylcellulose) (HPC) 104 % of control | dose: 1.56 mg/kg/injection, schedule: Q01DX005 (ip), vehicle: Klucel (hydroxypropylcellulose) (HPC) 106 % of control | dose: 3.12 mg/kg/injection, schedule: Q01DX005 (ip), vehicle: Klucel (hydroxypropylcellulose) (HPC) 97 % of control | [1] 116 % of control

COC1=CC23CC(CC(c4cc(OC)c(OC)c(OC)c4)C2C)OC3=CC1=O (centres undefined)
inactive: dose: 4.38 mg/kg/injection, schedule: Q01DX005 (ip), vehicle: Klucel (hydroxypropylcellulose) (HPC) 96 % of control | dose: 8.75 mg/kg/injection, schedule: Q01DX005 (ip), vehicle: Klucel (hydroxypropylcellulose) (HPC) 102 % of control | dose: 17.5 mg/kg/injection, schedule: Q01DX005 (ip), vehicle: Klucel (hydroxypropylcellulose) (HPC) 106 % of control

CCCCCCC(/C=C/c1ccc(Cl)c(Cl)c1)=N\Nc1ccccc1
inactive: dose: 6.25 mg/kg/injection, schedule: Q01DX009 (ip), vehicle: saline with Tween-80 103 % of control | [2] 97 % of control | [3] 103 % of control | [4] 100 % of control

O=S(=O)(Cc1cccs1)c1ncc(Br)cn1
inactive: [1] 106 % of control | dose: 25.0 mg/kg/injection, schedule: Q01DX005 (ip), vehicle: Klucel (hydroxypropylcellulose) (HPC) 106 % of control | [5] 111 % of control and 113 % of control | [6] 117 % of control

CN(C)C(=O)COC(C(=O)N(C)C)C(OCC(=O)N(C)C)C(=O)N(C)C (centres undefined)
inactive: [7] 97 % of control | dose: 100.0 mg/kg/injection, schedule: Q01DX005 (ip), vehicle: saline 95 % of control | dose: 200.0 mg/kg/injection, schedule: Q01DX005 (ip), vehicle: saline 92 % of control

O=C(O)CCNCCC(=O)O
inactive: dose: 50.0 mg/kg/injection, schedule: Q04DX003 (ip), vehicle: saline 96 % of control | dose: 100.0 mg/kg/injection, schedule: Q04DX003 (ip), vehicle: saline 123 % of control and 97 % of control | dose: 200.0 mg/kg/injection, schedule: Q04DX003 (ip), vehicle: saline 100 % of control | dose: 400.0 mg/kg/injection, schedule: Q04DX003 (ip), vehicle: saline 95 % of control

O=C1CCSC(=S)N1c1ccc(N=Nc2ccccc2)cc1
inactive: dose: 50.0 mg/kg/injection, schedule: Q01DX009 (ip), vehicle: saline 105 % of control | dose: 100.0 mg/kg/injection, schedule: Q01DX009 (ip), vehicle: saline 110 % of control | dose: 200.0 mg/kg/injection, schedule: Q01DX009 (ip), vehicle: saline 110 % of control

O=c1oc2ccccc2cc1-n1nnc2ccccc21
inactive: dose: 60.0 mg/kg/injection, schedule: Q01DX005 (ip), vehicle: saline with Tween-80 98 % of control | dose: 120.0 mg/kg/injection, schedule: Q01DX005 (ip), vehicle: saline with Tween-80 90 % of control | dose: 240.0 mg/kg/injection, schedule: Q01DX005 (ip), vehicle: saline with Tween-80 90 % of control

COC(=O)Cn1/c(=N\N=C(/C)c2ccc([N+](=O)[O-])cc2)sc2ccccc21
inactive: dose: 12.5 mg/kg/injection, schedule: Q01DX001 (ip), vehicle: saline with Tween-80 92 % of control | dose: 25.0 mg/kg/injection, schedule: Q01DX001 (ip), vehicle: saline with Tween-80 89 % of control | dose: 50.0 mg/kg/injection, schedule: Q01DX001 (ip), vehicle: saline with Tween-80 89 % of control | [8] 88 % of control

N#CC(CCCCl)(c1ccccc1)c1ccccc1
inactive: dose: 100.0 mg/kg/injection, schedule: Q04DX002 (ip), vehicle: Klucel (hydroxypropylcellulose) (HPC) 107 % of control | dose: 200.0 mg/kg/injection, schedule: Q04DX002 (ip), vehicle: Klucel (hydroxypropylcellulose) (HPC) 108 % of control | dose: 400.0 mg/kg/injection, schedule: Q04DX002 (ip), vehicle: Klucel (hydroxypropylcellulose) (HPC) 108 % of control

COc1cccc2c1CCC1=CC(=O)CCC12C (centres undefined)
inactive: [5] 102 % of control | [6] 96 % of control | [9] 93 % of control

CS(=O)(=O)Nc1ccc(Oc2c3ccccc3nc3ccccc23)cc1
inactive: dose: 100.0 mg/kg/injection, schedule: Q01DX001 (ip), vehicle: saline with Tween-80 91 % of control | dose: 200.0 mg/kg/injection, schedule: Q01DX001 (ip), vehicle: saline with Tween-80 92 % of control | [8] 90 % of control

CCOC(=O)CCC(C)(C#N)c1ccccc1 (centres undefined)
inactive: [2] 94 % of control | [3] 99 % of control | [4] 103 % of control | [10] 87 % of control

CCC(C)C(N)C(=O)N1CCCC1C(=O)NC(C(=O)O)C(C)CC (centres undefined)
inactive: dose: 8.25 mg/kg/injection, schedule: Q01DX005 (ip), vehicle: saline 99 % of control | dose: 16.5 mg/kg/injection, schedule: Q01DX005 (ip), vehicle: saline 102 % of control | dose: 33.0 mg/kg/injection, schedule: Q01DX005 (ip), vehicle: saline 94 % of control | dose: 66.0 mg/kg/injection, schedule: Q01DX005 (ip), vehicle: saline 102 % of control

C[N+]1(C[Si](C)(C)c2ccccc2)CCOCC1
inactive: dose: 12.5 mg/kg/injection, schedule: Q01DX005 (ip), vehicle: saline 105 % of control | dose: 25.0 mg/kg/injection, schedule: Q01DX005 (ip), vehicle: saline 103 % of control | [7] 102 % of control and 104 % of control

CN1C(=O)/C(=C2\SC(=O)N(CNc3ccc(Br)cc3)C2=O)c2ccccc21
inactive: dose: 60.0 mg/kg/injection, schedule: Q01DX005 (ip), vehicle: Klucel + Tween-80 88 % of control | dose: 240.0 mg/kg/injection, schedule: Q01DX005 (ip), vehicle: Klucel + Tween-80 89 % of control

NCC1CCC(C(=O)O)CC1 (centres undefined)
inactive: dose: 50.0 mg/kg/injection, schedule: Q01DX005 (ip), vehicle: saline with Tween-80 94 % of control | dose: 100.0 mg/kg/injection, schedule: Q01DX005 (ip), vehicle: saline with Tween-80 92 % of control | [10] 99 % of control | dose: 200.0 mg/kg/injection, schedule: Q01DX005 (ip), vehicle: saline with Tween-80 100 % of control | [11] 101 % of control | dose: 400.0 mg/kg/injection, schedule: Q01DX005 (ip), vehicle: saline with Tween-80 103 % of control | dose: 400.0 mg/kg/injection, schedule: Q01DX009 (ip), vehicle: saline with Tween-80 100 % of control | dose: 800.0 mg/kg/injection, schedule: Q01DX005 (ip), vehicle: saline with Tween-80 89 % of control

C/C=C/C[P+](Cc1cccc(C)c1)(c1ccccc1)c1ccccc1
inactive: dose: 0.78 mg/kg/injection, schedule: Q01DX009 (ip), vehicle: saline 101 % of control | dose: 1.56 mg/kg/injection, schedule: Q01DX009 (ip), vehicle: saline 95 % of control | dose: 3.13 mg/kg/injection, schedule: Q01DX009 (ip), vehicle: saline 111 % of control

O=C(O)C1CCCN1C(=O)OCC1c2ccccc2-c2ccccc21 (centres undefined)
inactive: [5] 99 % of control | [6] 99 % of control | [9] 95 % of control

Cc1c2c(cn1C)NC(=O)CN=C2c1ccccc1
inactive: [4] 105 % of control | [10] 116 % of control | [11] 99 % of control

CCC[CH2][Sn]([Cl])([Cl])[CH2]CCC.c1ccc(-c2nnc(-c3ccccn3)nc2-c2ccccc2)cc1
inactive: dose: 60.0 mg/kg/injection, schedule: Q01DX005 (ip), vehicle: Klucel (hydroxypropylcellulose) (HPC) 106 % of control | dose: 120.0 mg/kg/injection, schedule: Q01DX005 (ip), vehicle: Klucel (hydroxypropylcellulose) (HPC) 106 % of control
